The values below come from patent publication US20170281602A1, “SOLID FORMS OF (S)-2-METHOXY-3--PROPIONIC ACID AND OF SALTS THEREOF” (Hoffmann-La Roche Inc., priority 2012, published 2017).

What all share (type): physicochemical
A short description of data set [1]: Thermal solid-form transformation (DSC, temperature controlled XRPD). The settings on record: for temperature of thermal transformation into Sodium salt Form A: incubation at high temperature; for glass transition temperature, above which recrystallization is likely to occur: midpoint. The method, then: DSC curves were recorded using a Mettler-Toledo™ differential scanning calorimeter DSC820, DSC821 or DSC1 with a FRS05 sensor. System suitability tests were performed with indium as reference substance and calibrations were carried out using indium, benzoic acid, biphenyl and zinc as reference substances.
For the measurements, approximately 2-6 mg of sample were placed in aluminum pans, accurately weighed and hermetically closed with perforation lids. Prior to measurement, the lids were automatically pierced resulting in approx. 1.5 mm pin holes. The samples were then heated under a flow of nitrogen of about 100 mL/min using heating rates of usually 10 K/min.
(§1) X-ray powder diffraction patterns were recorded at ambient conditions in transmission geometry with a STOE STADI P diffractometer (Cu K ? ? radiation, primary monochromator, position sensitive detector, angular range 3° to 42° 2Theta, approximately 60 minutes total measurement time). Approximately 25 mg of sample were prepared and analyzed without further processing (e.g. grinding or sieving) of the substance.

Data set [2] is described as follows: Hygroscopicity of the solid forms (DVS sorption/desorption isotherms). The settings on record: in words. As for the experimental part: (§2) DVS isotherms were collected on a DVS-1, DVS-HT and DVS Intrinsic (SMS Surface Measurements Systems) moisture balance system. The sorption/desorption isotherms were measured stepwise in a range of 0% RH to 90% RH at 25° C. A weight change of <0.002 mg/min was chosen as criterion to switch to the next level of relative humidity (with a maximum equilibration time of 24 hours, if the weight criterion was not met). The data were corrected for the initial moisture content of the samples; that is, the weight after drying the sample at 0% RH was taken as the reference point.

Data set [3] is described as follows: Competing slurry experiment between Free acid Forms A, B and C. The settings on record: isopropyl acetate, 20 and 60° C., seeded with Free acid Form B and Form C, 14 days, wet stage XRPD. The method, then:
Description of a typical competing slurry experiment:
200 and 300 mg of form A of (S)-2-methoxy-3-{4-[2-(5-methyl-2-phenyl-oxazol-4-yl)-ethoxy]-benzo[b]thiophen-7-yl}-propionic acid were each suspended in ca. 1 mL of isopropyl acetate at 20 and 60° C., respectively. After 24 h the two suspensions were seeded with approximately 10 mg of Free acid Form B and Free acid Form C. After 14 days the crystals were harvested by filtration and analyzed in wet stage by XRPD.

The nature of data set [4]: Relative stability of the solid forms (statements in words). The settings on record: for solid form stability: in words.
Data set [5] in a line: Humidity-induced solid-form transformation (humidity controlled XRPD, DVS). The settings on record: at 25° C. As for the experimental part: as §2, §1
Data set [6] is described as follows: Decomposition temperature of the solid form (thermal analysis). The method, then: TGA analysis was performed on a Mettler-Toledo™ thermogravimetric analyzer (TGA850 or TGA851). System suitability tests were performed with Hydranal as reference substance and calibrations using aluminum and indium as reference substances.
For the thermogravimetric analyses, approx. 5 to 10 mg of sample were placed in aluminum pans, accurately weighed and hermetically closed with perforation lids. Prior to measurement, the lids were automatically pierced resulting in approx. 1.5 mm pin holes. The samples were then heated under a flow of nitrogen of about 50 mL/min using a heating rate of 5 K/min.

A value given as a limit tells only on which side of the number the result lay.

With `CO[C@@H](Cc1ccc(OCCc2nc(-c3ccccc3)oc2C)c2ccsc12)C(=O)O` [Free acid Form B, (S)-2-methoxy-3-{4-[2-(5-methyl-2-phenyl-oxazol-4-yl)-ethoxy]-benzo[b]thiophen-7-y1}-propionic acid], the “temperature below which spontaneous transformation into Free acid Form A occurs” value in data set [1] (extrapolated peak DSC) is under −5 °C. The “temperature of spontaneous solid-solid retransformation into Free acid Form A” value in data set [1] (observed at this temperature or below) was at most 45 °C.
For the compound `CO[C@@H](Cc1ccc(OCCc2nc(-c3ccccc3)oc2C)c2ccsc12)C(=O)O` [Free acid Form A, (S)-2-methoxy-3-{4-[2-(5-methyl-2-phenyl-oxazol-4-yl)-ethoxy]-benzo[b]thiophen-7-y1}-propionic acid], the hygroscopicity result in data set [2] was “non-hygroscopic”. For the same compound, the “solid form obtained in competing slurry” value in data set [3] is listed as “pure Free acid Form A is obtained”. Also, the “thermodynamic stability among polymorphs” value in data set [4] (below ca. 60° C.) is on record as “thermodynamically most stable polymorph”. Moreover, the “temperature of transformation into Free acid Form B” value in data set [1] (temperature controlled XRPD) was over 85 °C.
In the case of `CO[C@@H](Cc1ccc(OCCc2nc(-c3ccccc3)oc2C)c2ccsc12)C(=O)[O-].[Na+]` [Sodium salt Form C, sodium (S)-2-methoxy-3-{4-[2-(5-methyl-2-phenyl-oxazol-4-yl)-ethoxy]-benzo[b]thiophen-7-yl}-propanoate], the “relative humidity below which reversible transformation into a dehydrated solid form occurs” value in data set [5] (humidity controlled XRPD) was under 15 %-RH.
As to `CO[C@@H](Cc1ccc(OCCc2nc(-c3ccccc3)oc2C)c2ccsc12)C(=O)[O-].[Na+]` [Sodium salt Form B, sodium (S)-2-methoxy-3-{4-[2-(5-methyl-2-phenyl-oxazol-4-yl)-ethoxy]-benzo[b]thiophen-7-yl}-propanoate], the solid form stability entry in data set [4] is reported as “metastable”. The “temperature of thermal transformation into Sodium salt Form A” value in data set [1] was over 120 °C.
`CO[C@@H](Cc1ccc(OCCc2nc(-c3ccccc3)oc2C)c2ccsc12)C(=O)O` [Free acid Form C, (S)-2-methoxy-3-{4-[2-(5-methyl-2-phenyl-oxazol-4-yl)-ethoxy]-benzo[b]thiophen-7-yl}-propionic acid]: the “thermodynamic stability among polymorphs” value in data set [4] (at ambient temperature) is “thermodynamically less stable than Free acid Form A and Free acid Form B”. For the same compound, in data set [1] (extrapolated peak DSC), the “temperature of transformation into Free acid Form B” value is “ca. 150 °C”.
As for `CO[C@@H](Cc1ccc(OCCc2nc(-c3ccccc3)oc2C)c2ccsc12)C(=O)O` [Free acid Form E, (S)-2-methoxy-3-{4-[2-(5-methyl-2-phenyl-oxazol-4-yl)-ethoxy]-benzo[b]thiophen-7-yl}-propionic acid], in data set [4], the solid form stability entry was “transforms into Free acid Form B upon mild heating”.
The same measure, in the same setting: with `CO[C@@H](Cc1ccc(OCCc2nc(-c3ccccc3)oc2C)c2ccsc12)C(=O)O` [Free acid Form D, (S)-2-methoxy-3-{4-[2-(5-methyl-2-phenyl-oxazol-4-yl)-ethoxy]-benzo[b]thiophen-7-yl}-propionic acid] the entry was “transforms into Free acid Form B upon storage at ambient conditions over time”.
“diisopropylammonium (S)-2-methoxy-3-{4-[2-(5-methyl-2-phenyl-oxazol-4-yl)-ethoxy]-benzo[b]thiophen-7-yl}-propanoate [Diisopropylammonium salt Form A]”: the hygroscopicity result in data set [2] was “slightly hygroscopic”. The decomposition temperature entry in data set [6] was “approx. 100 °C”.
Turning to `CO[C@@H](Cc1ccc(OCCc2nc(-c3ccccc3)oc2C)c2ccsc12)C(=O)O` [amorphous form of the Free acid, (S)-2-methoxy-3-{4-[2-(5-methyl-2-phenyl-oxazol-4-yl)-ethoxy]-benzo[b]thiophen-7-yl}-propionic acid], the hygroscopicity entry in data set [2] (listed as amorphous form of (S)-2-methoxy-3-{4-[2-(5-methyl-2-phenyl-oxazol-4-yl)-ethoxy]-) was “hygroscopic”. The “glass transition temperature, above which recrystallization is likely to occur” value in data set [1] was “approx. 44 °C”.
For `CO[C@@H](Cc1ccc(OCCc2nc(-c3ccccc3)oc2C)c2ccsc12)C(=O)[O-].[Na+]` [Sodium salt Form A, sodium (S)-2-methoxy-3-{4-[2-(5-methyl-2-phenyl-oxazol-4-yl)-ethoxy]-benzo[b]thiophen-7-yl}-propanoate], in data set [5], the “relative humidity above which transformation into hydrated form occurs” value is over 80 % RH. Also, in data set [1], the “temperature of transformation into Sodium salt Form B” value is over 208 °C.
In the case of `CO[C@@H](Cc1ccc(OCCc2nc(-c3ccccc3)oc2C)c2ccsc12)C(=O)[O-].[Na+]` [Sodium salt amorphous form, sodium (S)-2-methoxy-3-{4-[2-(5-methyl-2-phenyl-oxazol-4-yl)-ethoxy]-benzo[b]thiophen-7-yl}-propanoate], the “relative humidity above which transformation into hydrated form occurs” value in data set [5] is “Above 50 % RH”. Besides, the hygroscopicity result in data set [2] is given as “hygroscopic”. Also, in data set [1], the “temperature of thermal transformation into Sodium salt Form A” value is over 115 °C and the “glass transition temperature, above which recrystallization is likely to occur” value is “approx. 65.5 °C”.
